Patent US20030091553A1 (priority 2001, published 2003)
Like-named read-outs stand apart in the source and are kept apart here.

Tests used:
[1] = tested on: hepatic tissue damage secondary to pancreatitis; conditions: 100 μg/kg per day over one to two weeks, acute pancreatitis
Protocol: A patient presenting with acute pancreatitis is identified. The patient is administered 100 μg/kg histamine diphosphate per day over a period of one to two weeks. A liver biopsy is performed upon resolution of the pancreatitis.

[2] = tested on: hepatotoxic effect of comfrey; assay: Catalase supplement in an individual consuming comfrey; assay type: in vivo, human; conditions: 8 mg/day
Protocol: The common herb comfrey can be administered as a poultice or tea drink to as an expectorant, demulcent, and/or tonic. However, consumption of comfrey has been linked to liver damage. In order to minimize the hepatotoxic effect of comfrey, an individual consuming comfrey as an herbal remedy is supplemented with 8 mg/day of catalase.

NK/T-cells = conditions: 25 μM hydrogen peroxide, n=8, mean±s.e.m.
Excerpt: (§1) This example illustrates the effect of histamine on the lymphocytes isolated from human liver. […] All data are the mean±s.e.m. (n=15-30 blood donors).

T-cells = conditions: 25 μM hydrogen peroxide, n=8, mean±s.e.m.
Excerpt: as §1

NK-cells = conditions: 25 μM hydrogen peroxide, n=8, mean±s.e.m.
Excerpt: as §1

[3] = tested on: drug-induced liver damage; conditions: daily oral dose of 10 mg, patient on phenytoin three times a day
Protocol: An epileptic taking phenytoin three times a day to control seizures is supplemented with a daily oral dose of 10 mg of histamine dihydrochloride. Prior to supplementation with histamine dihydrochloride, the epileptic experiences liver damage as a consequence of taking phenytoin as confirmed by liver biopsy.

[4] = both histamine treated groups versus ethanol alone treated group
Excerpt: (§2) Animals and Treatments. Female Wistar rats weighing between 200 and 275 g were fed ad libitum continuously for up to 4 weeks a liquid diet (Dyets, Bethlehem, Pa. #710034) in which 35% of the calories were from corn oil, […], 5% were from vitamins and minerals, 11% were from maltose-dextrin, and 36% were from ethanol. An isocaloric maltose-dextrin diet (Dyets, #710270) was used for control. Rats were given a single dose of ethanol (5 g/kg body weight intragastrically) using an 18-gauge oral biomedical device (Popper & Sons, Inc., New Hyde Park, N.Y.) diluted in PBS (pH 7.2; GIBCO Laboratories Life Technologies Inc., Grand Island, N.Y.) every 24 hours. Control animals were gavaged with PBS alone. Either histamine dihydrochloride (0.5 mg/kg or 5.0 mg/kg; Sigma Chemical Co., St. Louis, Mo.) or vehicle (PBS, pH 7.4; GIBCO Laboratories Life Technologies Inc., Grand Island, N.Y.) was administered by subcutaneous injection twice daily for 4 weeks. Body weights of each rat were measured daily. Rats were housed in a pathogen-free facility and the institutional animal care and use committee approved the surgical procedures used in this study.

[5] = tested on: early alcohol-induced liver injury
Excerpt: as §2

[6] = Effect of the duration of administration of histamine; conditions: administered over longer than about 30 minutes
[7] = tested on: early alcohol-induced liver injury; remark: listed apart in the source
Excerpt: as §2
Pathological Evaluation. After 2 and 4 weeks of ethanol treatment, livers were formalin fixed, embedded in paraffin, and stained with hematoxylin and eosin to assess steatosis, inflammation, and necrosis. Liver pathology was scored in a blinded manner by an outside expert as follows:
1. Degree of steatosis, score 0-4 (based on % of hepatocytes containing lipid)
2. Degree of inflammatory cell infiltration, score 0-4
3. Degree of degeneration and necrosis, score 0-4
The points for each grade of histological evaluation were compiled into a total score for each liver.
Severity scores for each finding in each group were summed and then divided by the number of animals evaluated per group. The groups were assigned scores as follows: None=0; […].

[8] = tested on: drug-induced liver damage; conditions: oral tablet with isoniazid, six to twelve months, versus isoniazid alone
Protocol: An individual presenting with tuberculosis is prescribed an oral tablet comprising isoniazid and an effective dose of histamine for a period of six to twelve months. During the treatment period, the patient is monitored by a physician and lab tests to check the status of the patient's liver in response to the medication are performed.

[9] = tested on: CD3+T-cells, CD3-/56+ NK-cells and CD3+/56+ NK/T-cells; conditions: all cell types; induced by autologous monocytes or granulocytes; p<0.001
Excerpt: as §1

histamine diphosphate
damage to hepatic tissue (liver biopsy) [1]: prevents damage to hepatic tissue
incidence of infection associated with pancreatitis [1]: lowers the incidence of infection associated with pancreatitis

catalase
hepatic injury [2]: No hepatic injury is observed

OO [hydrogen peroxide]
cells that became apoptotic (NK/T-cells): 78±7%
cells that became apoptotic (T-cells): 35±5%
cells that became apoptotic (NK-cells): 65±7%

Cl.Cl.NCCc1c[nH]cn1 [histamine dihydrochloride]
liver damage [3]: further damage to the tissue of the liver is prevented

NCCc1c[nH]cn1 [Histamine, histamine]
recovery of body weight [4]: recovered their body weights more quickly
pathology scores and serum transaminase levels ([5]; 0.5 mg/kg or 5 mg/kg twice daily s.c.): normalization
ALT activity ([5]; preliminary results, ethanol control group 2-3 fold increase): somewhat normal ALT activity
efficacy [6]: decreased or lack of efficacy
liver injury ([7]; 0.5 mg/kg or 5 mg/kg twice daily s.c., highest dose most effective): blunted liver injury in a dose dependent manner
Histologic Findings in Liver, Mean Group Severity Scores, Total Overall Score ([7]; High Histamine (5.0 mg/kg s.c. twice daily), Week 2 of ethanol treatment): 2.00
Histologic Findings in Liver, Mean Group Severity Scores, Total Overall Score ([7]; High Histamine (5.0 mg/kg s.c. twice daily), Week 4 of ethanol treatment): 2.57
Histologic Findings in Liver, Mean Group Severity Scores, Total Overall Score ([7]; Low Histamine (0.5 mg/kg s.c. twice daily), Week 2 of ethanol treatment): 3.33
Histologic Findings in Liver, Mean Group Severity Scores, Total Overall Score ([7]; Low Histamine (0.5 mg/kg s.c. twice daily), Week 4 of ethanol treatment): 3.17
appearance of excised livers ([7]; histamine treated, ethanol-fed rats): comparative in appearance to livers from the non-ethanol treated group
liver damage by laboratory tests [8]: no damage to the patient's liver
apoptosis of lymphocytes [9]: significantly prevented
